From patent publication US7893077B2, “Bisaryl-sulfonamides” (Amgen Inc., priority 2004, dated 2011) come the findings set out here.

In the assay the target is T1, PPARγ (Homo sapiens, UniProt P37231).
T1 construct: made in house
T1 sequence (P37231 1-505): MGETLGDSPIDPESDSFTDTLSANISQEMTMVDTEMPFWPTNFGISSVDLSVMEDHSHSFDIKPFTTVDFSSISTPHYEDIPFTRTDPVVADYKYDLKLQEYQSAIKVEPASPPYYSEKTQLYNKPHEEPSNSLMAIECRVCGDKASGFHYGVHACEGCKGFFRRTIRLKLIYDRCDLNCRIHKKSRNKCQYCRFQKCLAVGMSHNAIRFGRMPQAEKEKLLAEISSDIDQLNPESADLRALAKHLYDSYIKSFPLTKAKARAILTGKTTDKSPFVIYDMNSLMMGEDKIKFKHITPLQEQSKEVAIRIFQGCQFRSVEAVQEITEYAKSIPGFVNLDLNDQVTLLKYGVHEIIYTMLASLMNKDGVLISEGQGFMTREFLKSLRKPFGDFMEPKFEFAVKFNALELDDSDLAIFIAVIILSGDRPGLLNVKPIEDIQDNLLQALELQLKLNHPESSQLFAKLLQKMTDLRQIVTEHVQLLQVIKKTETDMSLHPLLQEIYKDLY
Put plainly: PPARγ ligand binding assay utilizing [3H]-BRL 49653 as the radioligand (filtration). To be noted: concentration required to reduce by 50% the specific binding of [3H]-BRL 49653. An outline of the steps: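 Displacement of 10 nM [3H]-BRL 49653 from PPARγ-GST fusion protein in Tris-HCl pH 8.0 buffer with KCl, DTT, BSA and NP-40, 15 min incubation, then glutathione-bead capture for 1 h. Bound radioactivity counted after filtration washes; IC50 is concentration giving 50% loss of specific binding, reported in ranges.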

As usually defined, the IC50 is the concentration needed to halve the response being measured. Compound `CCCCc1cc(NS(=O)(=O)c2ccc(Cl)cc2Cl)nnc1Sc1ccc(S(=O)(=O)C2CCCC2)cc1` [Compound 133, 3-(2′,4′-dichloro)phenylsulfonylamino-5-n-butyl-6-(4″-cyclopentanesulfonyl)phenylthiopyridazine] registered an IC50 of under 1 µM. Compound `Cc1nc(NS(=O)(=O)c2ccc(C(F)(F)F)cc2Cl)ncc1Sc1ccc(S(=O)(=O)N2CCCCC2)cc1` [Compound 50, 2-Chloro-N-{4-methyl-5-[4-(piperidine-1-sulfonyl) -phenylsulfanyl]-pyrimidin-2-yl}-4-trifluoromethyl-benzenesulfonamide] gave a half-maximal inhibitory concentration (IC50) of under 10 µM. For `Cc1nc(NS(=O)(=O)c2ccc(C(F)(F)F)cc2Cl)ccc1Sc1ccc(S(=O)(=O)N2CCCCC2)cc1` [Compound 66, 2-Chloro-N-{6-methyl-5-[4-(piperidine-1-sulfonyl) -phenylsulfanyl]-pyridin-2-yl}-4-trifluoromethyl-benzenesulfonamide], the IC50 is under 1 µM. The figure for `COC(=O)c1nc(NS(=O)(=O)c2ccc(Cl)cc2Cl)ccc1Sc1ccc(S(=O)(=O)N2CCOCC2)cc1` [Compound 76, 6-(2,4-Dichloro-benzenesulfonylamino)-3-[4-(morpholine-4-sulfonyl)-phenylsulfanyl]-pyridine-2-carboxylic acid methyl ester] is under 1 µM. As to `CCN(CC)S(=O)(=O)c1ccc(Sc2ccc(NS(=O)(=O)c3ccc(C(F)(F)F)cc3Cl)nc2C(=O)C2CC2)cc1` [Compound 100, 2-Chloro-N-[6-cyclopropanecarbonyl-5-(4-diethylsulfamoyl-phenylsulfanyl)-pyridin-2-yl]-4-trifluoromethyl-benzenesulfonamide], the IC50 is under 1 µM.

The compound `Cc1cc(NS(=O)(=O)c2ccc(C(F)(F)F)cc2Cl)ncc1Sc1ccc(S(=O)(=O)N2CCOCC2)cc1` [Compound 74, 2-Chloro-N-{4-methyl-5-[4-(morpholine-4-sulfonyl) -phenylsulfanyl]-pyridin-2-yl}-4-trifluoromethyl-benzenesulfonamide] showed an IC50 of under 1 µM. The figure for `Cc1cc(S(=O)(=O)Nc2ccc(Sc3ccc(S(=O)(=O)N4CCCCC4)cc3)nn2)c(Cl)cc1Cl` [Compound 140, 2,4-Dichloro-5-methyl-N-{6-[4-(piperidine-1-sulfonyl) -phenylsulfanyl]-pyridazin-3-yl}-benzenesulfonamide] is under 1 µM; for `O=S(=O)(Nc1ncc(Sc2ccc(S(=O)(=O)N3CCCCC3)cc2)c(NCC2CC2)n1)c1ccc(Cl)cc1Cl` [Compound 19, 2,4-Dichloro-N-{4-(cyclopropylmethyl-amino)-5-[4-(piperidine-1-sulfonyl)-phenylsulfanyl]-pyrimidin-2-yl}-benzenesulfonamide] it is under 1 µM. The figure for `CCCN(C)c1nc(NS(=O)(=O)c2ccc(Cl)cc2Cl)ncc1Sc1ccc(S(=O)(=O)N2CCCCC2)cc1` [Compound 15, 2,4-Dichloro-N-{4-(methyl-propyl-amino)-5-[4-(piperidine-1-sulfonyl)-phenylsulfanyl]-pyrimidin-2-yl}-benzenesulfonamide] is under 1 µM. Next, `CCCCc1nc(NS(=O)(=O)c2ccc(Cl)cc2)ncc1Sc1ccc(S(=O)(=O)N2CCCCC2)cc1` [Compound 44, N-{4-Butyl-5-[4-(piperidine-1-sulfonyl)-phenylsulfanyl]-pyrimidin-2-yl}-4-chloro-benzenesulfonamide]: under 1 µM; `CCCCc1nc(NS(=O)(=O)c2ccc(C(F)(F)F)cc2Cl)ccc1Sc1ccc(S(=O)(=O)N2CCOCC2)cc1` [Compound 125, N-{6-Butyl-5-[4-(morpholine-4-sulfonyl)-phenylsulfanyl]-pyridin-2-yl}-2-chloro-4-trifluoromethyl-benzenesulfonamide]: under 1 µM. `CCNS(=O)(=O)c1ccc(Sc2ccc(NS(=O)(=O)c3ccc(Cl)cc3Cl)nc2C(=O)C2CC2)cc1` [Compound 119, 2,4-Dichloro-N-[6-cyclopropanecarbonyl-5-(4-ethylsulfamoyl-phenylsulfanyl)-pyridin-2-yl]-benzenesulfonamide] registered an IC50 of under 1 µM.

`Cc1cc(S(=O)(=O)Nc2cc(C)c(Sc3ccc(S(=O)(=O)N4CCCCC4)cc3)nn2)c(Cl)cc1Cl` [Compound 138, 2,4-Dichloro-5-methyl-N-{5-methyl-6-[4-(piperidine-1-sulfonyl)-phenylsulfanyl]-pyridazin-3-yl}-benzenesulfonamide] showed a concentration for half-maximal inhibition (IC50) of under 1 µM.

Turning to `O=C(c1cc(NS(=O)(=O)c2ccc(C(F)(F)F)cc2Cl)ncc1Sc1ccc(S(=O)(=O)N2CCOCC2)cc1)C1CC1` [Compound 129, 2-Chloro-N-{4-cyclopropanecarbonyl-5-[4-(morpholine-4-sulfonyl)-phenylsulfanyl]-pyridin-2-yl}-4-trifluoromethyl-benzenesulfonamide], the IC50 is under 1 µM. The figure for `Cc1nc(NS(=O)(=O)c2ccc(C(F)(F)F)cc2Cl)ncc1Oc1ccc(S(=O)(=O)N2CCOCC2)cc1` [Compound 55, 2-Chloro-N-{4-methyl-5-[4-(morpholine-4-sulfonyl) -phenoxy]-pyrimidin-2-yl}-4-trifluoromethyl-benzenesulfonamide] is under 10 µM; for `Cc1cc(NS(=O)(=O)c2ccc(Cl)cc2Cl)ncc1Sc1ccc(S(=O)(=O)N2CCCCC2)cc1` [Compound 63, 2,4-Dichloro-N-{4-methyl-5-[4-(piperidine-1-sulfonyl) -phenylsulfanyl]-pyridin-2-yl}-benzenesulfonamide] it is under 1 µM. Next, `CCCCc1nc(NS(=O)(=O)c2ccc(C(F)(F)F)cc2Cl)ncc1Sc1ccc(S(=O)(=O)N2CCCCC2)cc1` [Compound 46, N-{4-Butyl-5-[4-(piperidine-1-sulfonyl)-phenylsulfanyl]-pyrimidin-2-yl}-2-chloro-4-trifluoromethyl-benzenesulfonamide]: under 1 µM; `CCCCc1cc(NS(=O)(=O)c2ccc(C(F)(F)F)cc2Cl)nnc1Sc1ccc(S(=O)(=O)C2CCCC2)cc1` [Compound 134, 3-(2′-chloro-4′-trifluoromethyl)phenylsulfonylamino-5-n-butyl-6-(4″-cyclopentanesulfonyl)phenylthiopyridazine]: under 1 µM. `CCCC(=O)c1nc(NS(=O)(=O)c2ccc(Cl)cc2Cl)ccc1Sc1ccc(S(=O)(=O)N2CCCC2)cc1` [Compound 94, N-{6-Butyryl-5-[4-(pyrrolidine-1-sulfonyl)-phenylsulfanyl]-pyridin-2-yl}-2,4-dichloro-benzenesulfonamide] came in with an IC50 of under 1 µM.

As to `CCCNc1nc(NS(=O)(=O)c2ccc(Cl)cc2)ncc1Oc1ccc(S(=O)(=O)N2CCOCC2)cc1` [Compound 24, 4-Chloro-N-{5-[4-(morpholine-4-sulfonyl)-phenoxy]-4-propylamino-pyrimidin-2-yl}-benzenesulfonamide], the IC50 is under 10 µM. As for `CCC(CC)S(=O)(=O)c1ccc(Sc2ccc(NS(=O)(=O)c3ccc(C(F)(F)F)cc3Cl)nc2C(=O)C2CC2)cc1` [Compound 117, 2-Chloro-N-{6-cyclopropanecarbonyl-5-[4-(pentane-3-sulfonyl)-phenylsulfanyl]-pyridin-2-yl}-4-trifluoromethyl-benzenesulfonamide], the IC50 is under 10 µM. The figure for `O=C(c1nc(NS(=O)(=O)c2ccc(Cl)cc2Cl)ccc1Sc1ccc(S(=O)(=O)C2CCCC2)cc1)C1CC1` [Compound 113, 2,4-Dichloro-N-[5-(4-cyclopentanesulfonyl-phenylsulfanyl)-6-cyclopropanecarbonyl-pyridin-2-yl]-benzenesulfonamide] is under 1 µM; for `CCCCc1cc(NS(=O)(=O)c2ccc(Cl)cc2Cl)nnc1Sc1ccc(S(=O)(=O)N2CCCCC2)cc1` [Compound 132, 3-(2′,4′-dichloro)phenylsulfonylamino-5-n-butyl-6-(4″-N-piperidinesulfonyl)phenylthiopyridazine] it is under 1 µM; for `CCCC(=O)c1nc(NS(=O)(=O)c2ccc(C(F)(F)F)cc2Cl)ccc1Sc1ccc(S(=O)(=O)C2CCOCC2)cc1` [Compound 101, N-{6-Butyryl-5-[4-(tetrahydro-pyran-4-sulfonyl)-phenylsulfanyl]-pyridin-2-yl}-2-chloro-4-trifluoromethyl-benzenesulfonamide] it is under 1 µM. The figure for `CC(C)S(=O)(=O)c1ccc(Sc2ccc(NS(=O)(=O)c3ccc(Cl)cc3Cl)nc2C(=O)C2CC2)cc1` [Compound 107, 2,4-Dichloro-N-{6-cyclopropanecarbonyl-5-[4-(propane-2-sulfonyl)-phenylsulfanyl]-pyridin-2-yl}-benzenesulfonamide] is under 1 µM; for `CC(C)CNc1nc(NS(=O)(=O)c2ccc(Cl)cc2Cl)ncc1Sc1ccc(S(=O)(=O)N2CCCCC2)cc1` [Compound 20, 2,4-Dichloro-N-{4-isobutylamino-5-[4-(piperidine-1-sulfonyl)-phenylsulfanyl]-pyrimidin-2-yl}-benzenesulfonamide] it is under 1 µM; for `CC(C)CCNc1nc(NS(=O)(=O)c2ccc(Cl)cc2Cl)ncc1Sc1ccc(S(=O)(=O)N2CCCCC2)cc1` [Compound 21, 2,4-Dichloro-N-{4-(3-methyl-butylamino)-5-[4-(piperidine-1-sulfonyl)-phenylsulfanyl]-pyrimidin-2-yl}-benzenesulfonamide] it is under 10 µM.
